Assay results published in PubChem BioAssay (NCI).
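How tested: cells in 96-well plates exposed to compound for 48 hours at five concentrations. The concentration for 50% growth inhibition is given as GI50. TGI is the concentration that stops growth completely.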

Assays:
Experiment in all cases: NCI-60 cell line screen, 48 h
786-0 renal = test system: 786-0 renal
SK-OV-3 ovarian = test system: SK-OV-3 ovarian
MDA-MB-231 breast = test system: MDA-MB-231 breast
UO-31 renal = test system: UO-31 renal
HT29 colon = test system: HT29 colon
CAKI-1 renal = test system: CAKI-1 renal
A549 NSCLC = test system: A549 NSCLC
A498 renal = test system: A498 renal
HCT-15 colon = test system: HCT-15 colon
SK-MEL-28 melanoma = test system: SK-MEL-28 melanoma
M14 melanoma = test system: M14 melanoma
HOP-92 NSCLC = test system: HOP-92 NSCLC
UACC-62 melanoma = test system: UACC-62 melanoma
MALME-3M melanoma = test system: MALME-3M melanoma
OVCAR-3 ovarian = test system: OVCAR-3 ovarian
OVCAR-4 ovarian = test system: OVCAR-4 ovarian
MDA-MB-435 = test system: MDA-MB-435
HS 578T breast = test system: HS 578T breast
UACC-257 melanoma = test system: UACC-257 melanoma
OVCAR-5 ovarian = test system: OVCAR-5 ovarian
HCT-116 colon = test system: HCT-116 colon
NCI-H460 lung = test system: NCI-H460 lung
NCI-H23 lung = test system: NCI-H23 lung
BT-549 breast = test system: BT-549 breast
SNB-19 CNS = test system: SNB-19 CNS
LOX IMVI melanoma = test system: LOX IMVI melanoma
SK-MEL-2 melanoma = test system: SK-MEL-2 melanoma
HOP-62 NSCLC = test system: HOP-62 NSCLC
KM12 colon = test system: KM12 colon
COLO 205 colon = test system: COLO 205 colon
SW-620 colon = test system: SW-620 colon
SF-295 CNS = test system: SF-295 CNS
TK-10 renal = test system: TK-10 renal
K-562 leukemia = test system: K-562 leukemia
HL-60(TB) leukemia = test system: HL-60(TB) leukemia
IGROV1 ovarian = test system: IGROV1 ovarian
RXF 393 renal = test system: RXF 393 renal
CCRF-CEM leukemia = test system: CCRF-CEM leukemia
ACHN renal = test system: ACHN renal
NCI-H226 lung = test system: NCI-H226 lung
PC-3 prostate = test system: PC-3 prostate
SF-539 CNS = test system: SF-539 CNS
DU-145 prostate = test system: DU-145 prostate
HCC-2998 colon = test system: HCC-2998 colon
SK-MEL-5 melanoma = test system: SK-MEL-5 melanoma
NCI-H522 lung = test system: NCI-H522 lung
RPMI-8226 leukemia = test system: RPMI-8226 leukemia
NCI/ADR-RES ovarian = test system: NCI/ADR-RES ovarian
SN12C renal = test system: SN12C renal
MCF7 breast = test system: MCF7 breast
U251 CNS = test system: U251 CNS
EKVX NSCLC = test system: EKVX NSCLC
MOLT-4 leukemia = test system: MOLT-4 leukemia
T-47D breast = test system: T-47D breast
SNB-75 CNS = test system: SNB-75 CNS
SR leukemia = test system: SR leukemia
SF-268 CNS = test system: SF-268 CNS

CCN1CCN(C(=O)[C@]23CCC(C)(C)C[C@@H]2C2=CC[C@@H]4[C@@]5(C)C/C(=C/c6ccncc6)C(=O)C(C)(C)[C@@H]5CC[C@@]4(C)[C@]2(C)CC3)CC1
GI50 (786-0 renal): 1.68 µM
TGI (786-0 renal): 3.15 µM
GI50 (SK-OV-3 ovarian): 2.1 µM
TGI (SK-OV-3 ovarian): 4.41 µM
GI50 (MDA-MB-231 breast): 1.63 µM
TGI (MDA-MB-231 breast): 3.16 µM
GI50 (UO-31 renal): 1.24 µM
TGI (UO-31 renal): 2.5 µM
GI50 (HT29 colon): 1.38 µM
TGI (HT29 colon): 3.14 µM
GI50 (CAKI-1 renal): 1.45 µM
TGI (CAKI-1 renal): 2.95 µM
GI50 (A549 NSCLC): 1.66 µM
TGI (A549 NSCLC): 4.65 µM
GI50 (A498 renal): 1.7 µM
TGI (A498 renal): 3.1 µM
GI50 (HCT-15 colon): 1.25 µM
TGI (HCT-15 colon): 2.73 µM
GI50 (SK-MEL-28 melanoma): 1.62 µM
TGI (SK-MEL-28 melanoma): 3.03 µM
GI50 (M14 melanoma): 1.54 µM
TGI (M14 melanoma): 3.17 µM
GI50 (HOP-92 NSCLC): 1.07 µM
TGI (HOP-92 NSCLC): 2.39 µM
GI50 (UACC-62 melanoma): 1.46 µM
TGI (UACC-62 melanoma): 2.82 µM
GI50 (MALME-3M melanoma): 1.65 µM
TGI (MALME-3M melanoma): 3.14 µM
GI50 (OVCAR-3 ovarian): 1.49 µM
TGI (OVCAR-3 ovarian): 2.91 µM
GI50 (OVCAR-4 ovarian): 1.54 µM
TGI (OVCAR-4 ovarian): 3.2 µM
GI50 (MDA-MB-435): 1.41 µM
TGI (MDA-MB-435): 2.81 µM
GI50 (HS 578T breast): 1.58 µM
TGI (HS 578T breast): 4.16 µM
GI50 (UACC-257 melanoma): 1.51 µM
TGI (UACC-257 melanoma): 3.28 µM
GI50 (OVCAR-5 ovarian): 1.66 µM
TGI (OVCAR-5 ovarian): 3.15 µM
GI50 (HCT-116 colon): 1.35 µM
TGI (HCT-116 colon): 2.87 µM
GI50 (NCI-H460 lung): 1.28 µM
TGI (NCI-H460 lung): 2.7 µM
GI50 (NCI-H23 lung): 1.63 µM
TGI (NCI-H23 lung): 3.16 µM
GI50 (BT-549 breast): 1.53 µM
TGI (BT-549 breast): 3.04 µM
GI50 (SNB-19 CNS): 1.48 µM
TGI (SNB-19 CNS): 2.86 µM
GI50 (LOX IMVI melanoma): 1.4 µM
TGI (LOX IMVI melanoma): 2.8 µM
GI50 (SK-MEL-2 melanoma): 1.73 µM
TGI (SK-MEL-2 melanoma): 3.33 µM
GI50 (HOP-62 NSCLC): 1.72 µM
TGI (HOP-62 NSCLC): 3.3 µM
GI50 (KM12 colon): 1.47 µM
TGI (KM12 colon): 2.98 µM
GI50 (COLO 205 colon): 1.64 µM
TGI (COLO 205 colon): 3.64 µM
GI50 (SW-620 colon): 1.48 µM
TGI (SW-620 colon): 3.14 µM
GI50 (SF-295 CNS): 1.43 µM
TGI (SF-295 CNS): 2.76 µM
GI50 (TK-10 renal): 1.95 µM
TGI (TK-10 renal): 3.47 µM
GI50 (K-562 leukemia): 1.6 µM
TGI (K-562 leukemia): > 100 µM
GI50 (HL-60(TB) leukemia): 1.04 µM
TGI (HL-60(TB) leukemia): 4.4 µM
GI50 (IGROV1 ovarian): 1.6 µM
TGI (IGROV1 ovarian): 3.13 µM
GI50 (RXF 393 renal): 1.45 µM
TGI (RXF 393 renal): 2.81 µM
GI50 (CCRF-CEM leukemia): 1.7 µM
TGI (CCRF-CEM leukemia): 5.32 µM
GI50 (ACHN renal): 1.6 µM
TGI (ACHN renal): 2.95 µM
GI50 (NCI-H226 lung): 2 µM
TGI (NCI-H226 lung): 4.31 µM
GI50 (PC-3 prostate): 0.833 µM
TGI (PC-3 prostate): 2.2 µM
GI50 (SF-539 CNS): 1.64 µM
TGI (SF-539 CNS): 3.04 µM
GI50 (DU-145 prostate): 1.67 µM
TGI (DU-145 prostate): 3.19 µM
GI50 (HCC-2998 colon): 1.47 µM
TGI (HCC-2998 colon): 2.89 µM
GI50 (SK-MEL-5 melanoma): 1.6 µM
TGI (SK-MEL-5 melanoma): 2.99 µM
GI50 (NCI-H522 lung): 1.53 µM
TGI (NCI-H522 lung): 3.39 µM
GI50 (RPMI-8226 leukemia): 1.25 µM
TGI (RPMI-8226 leukemia): 4.64 µM
GI50 (NCI/ADR-RES ovarian): 1.48 µM
TGI (NCI/ADR-RES ovarian): 3.17 µM
GI50 (SN12C renal): 1.31 µM
TGI (SN12C renal): 2.66 µM
GI50 (MCF7 breast): 1.08 µM
TGI (MCF7 breast): 2.53 µM
GI50 (U251 CNS): 1.42 µM
TGI (U251 CNS): 2.87 µM
GI50 (EKVX NSCLC): 1.49 µM
TGI (EKVX NSCLC): 3.01 µM

Oc1[nH]c2ccccc2c1/C=c1/cc2c(c(-c3ccc(F)cc3)n1)=Nc1ccccc1-2
GI50 (MOLT-4 leukemia): 2.17 µM
TGI (MOLT-4 leukemia): 5.41 µM
GI50 (SK-OV-3 ovarian): 0.848 µM
TGI (SK-OV-3 ovarian): 3.15 µM
GI50 (MDA-MB-231 breast): 0.609 µM
TGI (MDA-MB-231 breast): 2.39 µM
GI50 (UO-31 renal): 0.353 µM
TGI (UO-31 renal): 2.21 µM
GI50 (HT29 colon): 0.384 µM
TGI (HT29 colon): 1.43 µM
GI50 (CAKI-1 renal): 1.29 µM
TGI (CAKI-1 renal): 5.05 µM
GI50 (A549 NSCLC): 0.815 µM
TGI (A549 NSCLC): 2.28 µM
GI50 (A498 renal): 0.309 µM
TGI (A498 renal): 1.85 µM
GI50 (HCT-15 colon): 0.735 µM
TGI (HCT-15 colon): 2.43 µM
GI50 (SK-MEL-28 melanoma): 0.777 µM
TGI (SK-MEL-28 melanoma): 2.47 µM
GI50 (M14 melanoma): 0.315 µM
TGI (M14 melanoma): 1.41 µM
GI50 (HOP-92 NSCLC): 0.162 µM
TGI (HOP-92 NSCLC): 0.981 µM
GI50 (MALME-3M melanoma): 0.843 µM
TGI (MALME-3M melanoma): 2.26 µM
GI50 (OVCAR-3 ovarian): 0.233 µM
TGI (OVCAR-3 ovarian): 0.591 µM
GI50 (HS 578T breast): 0.528 µM
TGI (HS 578T breast): 3.28 µM
GI50 (T-47D breast): 0.501 µM
TGI (T-47D breast): 2.13 µM
GI50 (SNB-75 CNS): 0.227 µM
TGI (SNB-75 CNS): 1.27 µM
GI50 (UACC-257 melanoma): 0.714 µM
TGI (UACC-257 melanoma): 2.88 µM
GI50 (OVCAR-5 ovarian): 1.36 µM
TGI (OVCAR-5 ovarian): 4.39 µM
GI50 (HCT-116 colon): 1.01 µM
TGI (HCT-116 colon): 2.24 µM
GI50 (NCI-H23 lung): 1.16 µM
TGI (NCI-H23 lung): 3.11 µM
GI50 (SNB-19 CNS): 1.43 µM
TGI (SNB-19 CNS): 32.6 µM
GI50 (SK-MEL-2 melanoma): 0.327 µM
TGI (SK-MEL-2 melanoma): 1.34 µM
GI50 (KM12 colon): 0.363 µM
TGI (KM12 colon): 1.87 µM
GI50 (COLO 205 colon): 0.316 µM
TGI (COLO 205 colon): 1.27 µM
GI50 (SR leukemia): 0.306 µM
TGI (SR leukemia): 2.49 µM
GI50 (SW-620 colon): 0.438 µM
TGI (SW-620 colon): 2.43 µM
GI50 (SF-268 CNS): 1.01 µM
TGI (SF-268 CNS): 9.26 µM
GI50 (TK-10 renal): 1.44 µM
TGI (TK-10 renal): 3.71 µM
GI50 (K-562 leukemia): 0.435 µM
TGI (K-562 leukemia): 3.55 µM
GI50 (HL-60(TB) leukemia): 0.282 µM
TGI (HL-60(TB) leukemia): 0.994 µM
GI50 (IGROV1 ovarian): 0.554 µM
TGI (IGROV1 ovarian): 1.93 µM
GI50 (RXF 393 renal): 0.634 µM
TGI (RXF 393 renal): 1.96 µM
GI50 (CCRF-CEM leukemia): 0.648 µM
TGI (CCRF-CEM leukemia): 3.25 µM
GI50 (ACHN renal): 1.12 µM
TGI (ACHN renal): 2.54 µM
GI50 (NCI-H226 lung): 1.52 µM
TGI (NCI-H226 lung): 10.7 µM
GI50 (PC-3 prostate): 0.317 µM
TGI (PC-3 prostate): 1.88 µM
GI50 (SF-539 CNS): 0.477 µM
TGI (SF-539 CNS): 1.81 µM
GI50 (DU-145 prostate): 0.422 µM
TGI (DU-145 prostate): 2.03 µM
GI50 (HCC-2998 colon): 0.726 µM
TGI (HCC-2998 colon): 2.16 µM
GI50 (SK-MEL-5 melanoma): 1.41 µM
TGI (SK-MEL-5 melanoma): 3.06 µM
GI50 (NCI-H522 lung): 0.218 µM
TGI (NCI-H522 lung): 0.99 µM
GI50 (RPMI-8226 leukemia): 0.406 µM
TGI (RPMI-8226 leukemia): 2.03 µM
GI50 (NCI/ADR-RES ovarian): 0.267 µM
TGI (NCI/ADR-RES ovarian): 1.25 µM
GI50 (SN12C renal): 1.38 µM
TGI (SN12C renal): 3.88 µM
GI50 (MCF7 breast): 0.817 µM
TGI (MCF7 breast): 2.57 µM
GI50 (U251 CNS): 0.94 µM
TGI (U251 CNS): 2.17 µM
GI50 (EKVX NSCLC): 3.01 µM
TGI (EKVX NSCLC): 72.7 µM
